According to patent publication US20140357512A1, “HISTONE DEACETYLASE (HDAC) BIOMARKERS IN MULTIPLE MYELOMA” (priority 2013, published 2014):

Test system: human myeloma cell line MM.1S
Assay: SILAC acetylated-lysine peptide profiling, HDAC inhibitor vs DMSO (light/heavy ratio)
Assay type: cell-based
Text: An embodiment of the invention comprises utilizing the SILAC method in order to quantitate changes in protein expression between two or more populations of cells. The SILAC method is a technique based on mass spectrometry that detects differences in protein abundance among samples using non-radioactive isotopic labeling. The SILAC method is known in the art, and described in detail in Ong et al., “Stable Isotope Labeling by Amino Acids in Cell Culture, SILAC, as a Simple and Accurate Approach to Expression Proteomics”, Molecular & Cellular Proteomics, vol. 1, pp. 376-386 (2002), which is incorporated herein by reference in its entirety.
Briefly, the SILAC method involves growing two populations of cells in cell culture. The first population of cells is grown in growth media containing normal amino acids (“normal media”). The second population of cells is grown in media lacking a standard essential amino acid (such as lysine), but is then supplemented with a non-radioactive, isotopically labeled form of that essential amino acid (such as lysine labeled with ^13C atoms, rather than normal ^12C atoms), which is called “heavy media”. When the two populations of cells are each growing in the medium, they incorporate the amino acids into all of their proteins. The growth of cells maintained in the heavy media is no different from that in normal media. All peptides containing the heavy amino acids are heavier than their normal counterparts. The cells from each of the two populations of cells are lysed. The lysates from each of the two cell populations are then combined. The combined cell lysates are then analyzed by mass spectrometry. Pairs of chemically identical peptides of different stable isotope composition can be differentiated in a mass spectrometer due to their difference in mass. The ratio of peak intensities in the mass spectrum for such peptide pairs reflects the abundance ratio for the two proteins.
This example describes SILAC studies that were performed to compare the effects of three different HDAC inhibitors (Compound A, Compound B, and tubastatin A) to a control on a human multiple myeloma cell line. The HDAC inhibitors were also compared amongst themselves to determine differences in their effects.
A human myeloma cell line MM.1S was grown using either ^12C (light) or ^13C (heavy) lysine containing culture medium. The “heavy” cells were treated with DMSO as the control, and the “light” cells were treated with a single HDAC inhibitor at 37° C. for 6 hours. The heavy and light cells were lysed, and the lysates were mixed in 1:1 ratio and digested with the protease trypsin. The acetylated lysine containing peptides (due to the action of the HDAC inhibitor) in the digested peptide pool were captured by a non-specific anti-acetylated lysine antibody cocktail (the antibodies identify both light and heavy acetylated peptides), and subjected to mass spectrometry analysis in order to identify thousands of individual peptides.
Thousands of peptides were identified in pairs (^12C and ^13C) due to their known mass differences. The amino acid sequence and quantitative ratio (Light/Heavy) of a given peptide in two differentially treated cell lysates were then determined and annotated with their possible protein (gene) sources.
As stated above, three HDAC inhibitors (Compound A, Compound B, and Tubastatin A) were used. Thus, the SILAC method was performed three times, with a different HDAC inhibitor compared to a control each time. Accordingly, there are three pairs of quantitative data in the table below, i.e., Compound A:DMSO, Compound B:DMSO, and Tubastatin A:DMSO. A cut-off of 1.30 fold of change (increase or decrease) was then used to determine “changed” or “+” in the table, and any peptides with a fold of change less than 1.3 fold were determined to be “unchanged” or “0” in the table. Those peptides that were not identified were marked as “NA” in the table. […]

## O=C(NO)c1cnc(NC2(c3cccc(F)c3)CCCCC2)nc1 [Compound B, 2-((1-(3-fluorophenyl)cyclohexyl)amino)-N-hydroxypyrimidine-5-carboxamide]
ACTN1 [398], log 2 scale, drug vs DMSO
  L/H ratio of acetylated peptide LDHLAEK(ac)FR (SEQ ID NO: 20): 0.00
ADAR [757], log 2 scale, drug vs DMSO
  L/H ratio of acetylated peptide […](ac)FVYQAK (SEQ ID NO: 126): 0.00
ADINTK(ac)WAATR (SEQ ID NO: 202), Ribosomal protein L14 variant [85], RPL14
  light to heavy ratio (L/H ratio) of acetylated peptide, log 2 scale: 0.00
ADK(ac)DYHFK (SEQ ID NO: 191), Isoform 2 of Nucleophosmin [27], NPM1
  light to heavy ratio (L/H ratio) of acetylated peptide, log 2 scale: 0.00
ADP-ribosylation factor-like protein 11 [31], gene ARL11, inhibitor:DMSO
  light to heavy ratio (L/H ratio) of acetylated peptide TTLLYK(ac)LK (SEQ ID NO: 624): 0.00 log 2
ADP/ATP translocase 1 [166], SLC25A4, drug:DMSO
  light to heavy ratio (L/H ratio) of acetylated peptide IFK(ac)SDGLR (SEQ ID NO: 280): 0.00 log 2
ADP/ATP translocase 3 [166], gene SLC25A6, inhibitor:DMSO
  light to heavy ratio (L/H ratio) of acetylated peptide ITK(ac)SDGIR (SEQ ID NO: 587): 0.00 log 2
AELSK(ac)LVIVAK (SEQ ID NO: 370), UPF0556 protein C19orf10 [161], C19orf10
  L/H ratio of acetylated peptide: 1.00 log 2
AFG3L2 [543], log 2 scale, drug vs DMSO
  L/H ratio of acetylated peptide HLSDSINQK(ac)HFEQAIER: 0.00
AFQLK(ac)SR (SEQ ID NO: 439), ribonucleoprotein PTB-binding 1 [579], RAVER1
  L/H ratio of acetylated peptide: −0.89 log 2
AFYK(ac)SFSK (SEQ ID NO: 170), Endoplasmin [360], HSP90B1
  light to heavy ratio (L/H ratio) of acetylated peptide, log 2 scale: 0.00
AK(ac)FESMAEEK (SEQ ID NO: 402), Hematopoietic lineage cell-specific protein [241], HCLS1
  L/H ratio of acetylated peptide: 1.00 log 2
ALDLNLK(ac)HQILPK (SEQ ID NO: 248), Cytochrome b-c1 complex subunit 7 [72], UQCRB
  light to heavy ratio (L/H ratio) of acetylated peptide, log 2 scale: 0.00
ANP32B [101], log 2 scale, drug vs DMSO
  L/H ratio of acetylated peptide LK(ac)[…] (SEQ ID NO: 21): 0.00
ANXA6 [63], log 2 scale, drug vs DMSO
  L/H ratio of acetylated peptide […](ac)SLYGK (SEQ ID NO: 22): 0.00
ANXA11 [478], log 2 scale, drug vs DMSO
  L/H ratio of acetylated peptide LGTDESK(ac)FNAVLCSR (SEQ ID NO: 7): 0.50
ATAD3A [491], log 2 scale, drug vs DMSO
  L/H ratio of acetylated peptide MYFDK(ac)[…] (SEQ ID NO: 23): 0.00
ATAEEMTK(ac)YHSDEYIK (SEQ ID NO: 403), Histone deacetylase 2[161], HDAC2
  L/H ratio of acetylated peptide: 0.78 log 2
ATP5H [117], log 2 scale, drug vs DMSO
  L/H ratio of acetylated peptide IVEYEK(ac)EMEK (SEQ ID NO: 24): 0.00
ATP5J2 [54], log 2 scale, drug vs DMSO
  L/H ratio of acetylated peptide YYNK(ac)YINVK (SEQ ID NO: 12): −0.43
ATP synthase subunit O mitochondrial [54], ATP50, drug:DMSO
  light to heavy ratio (L/H ratio) of acetylated peptide QNK(ac)LEQVEK (SEQ ID NO: 271): 0.00 log 2
ATP synthase subunit alpha mitochondrial [539], gene ATP5A1, inhibitor:DMSO
  light to heavy ratio (L/H ratio) of acetylated peptide ISEQSDAK(ac)LK (SEQ ID NO: 600): 0.00 log 2
ATP synthase subunit b mitochondrial [233], ATP5F1, drug:DMSO
  light to heavy ratio (L/H ratio) of acetylated peptide […](ac)ETIAK (SEQ ID NO: 307): 0.00 log 2
ATP synthase subunit g mitochondrial [66], ATP5L, drug:DMSO
  light to heavy ratio (L/H ratio) of acetylated peptide […](ac)QLTVK (SEQ ID NO: 279): 0.00 log 2
ATP synthase-coupling factor 6 mitochondrial [41], ATP5J, drug:DMSO
  light to heavy ratio (L/H ratio) of acetylated peptide ELDPIQK(ac)LFVDK (SEQ ID NO: 365): −0.48 log 2
ATP synthase-coupling factor 6 mitochondrial [99], ATP5J, drug:DMSO
  light to heavy ratio (L/H ratio) of acetylated peptide FEDPK(ac)FEVIEKPQA (SEQ ID NO: 325): −0.50 log 2
AVEEK(ac)[…] (SEQ ID NO: 172), 78 kDa glucose-regulated protein [601], HSPA5
  light to heavy ratio (L/H ratio) of acetylated peptide, log 2 scale: 0.00
AVSMDNSNK(ac)YTK (SEQ ID NO: 396), Forkhead box protein O3 [259], FOXO3
  L/H ratio of acetylated peptide: 0.45 log 2
AYHLQK(ac)STCGK (SEQ ID NO: 443), 60S ribosomal protein L37 [31], RPL37
  L/H ratio of acetylated peptide: 0.42 log 2
Actin-related protein 2/3 complex subunit 1B [82], ARPC1B, ARPC1A, drug:DMSO
  light to heavy ratio (L/H ratio) of acetylated peptide NAYVWTLK(ac)GR (SEQ ID NO: 361): −1.00 log 2
Actin-related protein 2/3 complex subunit 3 [155], ARPC3, drug:DMSO
  light to heavy ratio (L/H ratio) of acetylated peptide VFDPQNDK(ac)[…] (SEQ ID NO: 362): 0.45 log 2
Acyl-CoA dehydrogenase family member 9 mitochondrial [41], gene ACAD9, inhibitor:DMSO
  light to heavy ratio (L/H ratio) of acetylated peptide AFAK(ac)ELFLGK (SEQ ID NO: 627): 0.00 log 2
